Experimental data: patent US10335409B2 (priority 2012, dated 2019)

Legend:
[1] = test system: genotype 3a (S52) stable HCV replicon in Huh-7-derived cells; experiment: Stable subgenomic HCV replicon EC50, genotype 3a (Renilla luciferase); format: cell-based, hepatitis C virus; conditions: Hepatitis C virus, 72 h, read-out: EC50 3A RLUC
[2] = test system: genotype 1b (Con1) stable HCV replicon in Huh-7-derived cells; experiment: Stable subgenomic HCV replicon EC50, genotype 1b (Renilla luciferase); format: cell-based, hepatitis C virus; conditions: Hepatitis C virus, stable replicon genotype 1b, 72 h, read-out: EC50 1B RLUC
Outline: (§1)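 Compounds, three-fold diluted, were applied to Huh-7-derived cells harbouring luciferase replicons (genotype 1a H77, 1b Con1, 2a JFH-1, 4a ED43, with strain-specific adaptive mutations). Seventy-two hours later, intracellular replication was gauged by Renilla luciferase activity and EC50 derived by regression.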

[3] = test system: genotype 4a (ED43) stable HCV replicon in Huh-7-derived cells; experiment: Stable subgenomic HCV replicon EC50, genotype 4a (Renilla luciferase); format: cell-based, hepatitis C virus; conditions: Hepatitis C virus, 72 h, read-out: EC50 4A RLUC
Outline: as §1

[4] = target: HCV NS3 protease domain genotype 3a (Hepatitis C virus genotype 3a, UniProt Q81258); experiment: Ki determination, NS3 protease genotype 3a (fluorogenic depsipeptide substrate); format: biochemical; conditions: 200 pM enzyme, NS4A peptide
Text: Purified NS3 protease domain (amino acids 1-181) of the genotype 1b and 3a virus were generated as above. The internally quenched fluorogenic depsipeptide substrate Ac-DED(Edans)-EEAbuΨ[COO]ASK(Dabcyl)-NH2 and a synthetic peptide containing the hydrophobic core residues of the NS4A protein cofactor ([…]; NS4A peptide) were obtained from Anaspec, Inc. (San Jose, Calif.). Other chemicals and biochemicals were of reagent grade or better and were purchased from standard suppliers.
Reactions were run at room temperature in buffer consisting of 50 mM HEPES, 40% glycerol, 0.05% Triton X-100, 10 mM DTT, and 10% DMSO. The final assay solutions contained 50 pM NS3 genotype 1 b protease or 200 pM genotype 3a protease, 20 μM NS4A peptide, and 4 μM substrate (genotype 1b) or 2 μM substrate (genotype 3a). Inhibitor concentrations varied from 100 nM to 5 pM in 3-fold dilutions, and no-inhibitor controls were included.
Compound dilutions were made in DMSO at 20× final concentration. Reaction mixtures were prepared in 96-well assay plates. A solution of enzyme and NS4A peptide in assay buffer (25 μL volume with both reagents at 4× final concentration) was mixed with 45 μL assay buffer and 5 μL of either inhibitor or DMSO, and pre-incubated at room temperature for 1 hour. The reaction was started by addition of 25 μL substrate solution at 4× final concentration. Plates were mixed vigorously for 5-10 seconds and reactions were allowed to proceed for 90 minutes, fluorescence was measured every 30 s between 90 and 120 minutes reaction time using a Tecan InfiniTe M1000 or PerkinElmer Envision multimode plate reader with an excitation wavelength of 340 nm and an emission wavelength of 490 nm.
Rates were calculated from the progress curves at steady state, in the time frame of 90-120 minutes after addition of substrate. To determine the Ki, rates were plotted as a function of inhibitor concentration, and the data were fit with equation 1 (Morrison, J. F., Biochimica et Biophysica Acta 1969, 185, 269-286) to calculate Ki^app using GraphPad Prism 5. Active fraction of enzyme was determined by active site titration with known potent inhibitors. Ki was calculated from Ki^app/(1+[[S]/Km]).

[5] = test system: genotype 2a (JFH-1) stable HCV replicon in Huh-7-derived cells; experiment: Stable subgenomic HCV replicon EC50, genotype 2a (Renilla luciferase); format: cell-based, hepatitis C virus; conditions: Hepatitis C virus, stable replicon genotype 2a, 72 h, read-out: EC50 2A RLUC
Outline: as §1

[6] = test system: genotype 1a (H77) stable HCV replicon in Huh-7-derived cells; experiment: Stable subgenomic HCV replicon EC50, genotype 1a (Renilla luciferase); format: cell-based, hepatitis C virus; conditions: Hepatitis C virus, stable replicon genotype 1a, 72 h, read-out: EC50 1A RLUC
Outline: as §1

[7] = test system: genotype 1a (H77) wild type transient HCV replicon in Huh-7-derived cells; experiment: Transient-transfected HCV replicon EC50, genotype 1a wild type; format: cell-based, hepatitis C virus; conditions: Hepatitis C virus, 72 h, transient-transfected replicon genotype 1a wild type, read-out: EC50 1A WT
[8] = test system: genotype 1a NS3/4a protease inhibitor resistant variant R155K transient HCV replicon in Huh-7-derived cells; experiment: Transient-transfected HCV replicon EC50, genotype 1a R155K; format: cell-based, hepatitis C virus; conditions: Hepatitis C virus, 72 h, read-out: EC50 1A R155K, transient-transfected replicon genotype 1a R155K resistant variant, 72 h
[9] = test system: genotype 1b NS3/4a protease inhibitor resistant variant D168A transient HCV replicon in Huh-7-derived cells; experiment: Transient-transfected HCV replicon EC50, genotype 1b D168A; format: cell-based, hepatitis C virus; conditions: Hepatitis C virus, 72 h, read-out: EC50 1B D168A, transient-transfected replicon genotype 1b D168A resistant variant, 72 h
[10] = test system: genotype 3a (S52) wild type transient HCV replicon in Huh-7-derived cells; experiment: Transient-transfected HCV replicon EC50, genotype 3a wild type; format: cell-based, hepatitis C virus; conditions: Hepatitis C virus; transient-transfected replicon genotype 3a wild type, 72 h; read-out: EC50 3A WT
[11] = test system: genotype 1b (Con1) wild type transient HCV replicon in Huh-7-derived cells; experiment: Transient-transfected HCV replicon EC50, genotype 1b wild type; format: cell-based, hepatitis C virus; conditions: Hepatitis C virus, 72 h, transient-transfected replicon genotype 1b wild type, read-out: EC50 1B WT

Chain of HCV NS3 protease domain genotype 3a (Q81258 whole entry, looked up, the tested form may be a part): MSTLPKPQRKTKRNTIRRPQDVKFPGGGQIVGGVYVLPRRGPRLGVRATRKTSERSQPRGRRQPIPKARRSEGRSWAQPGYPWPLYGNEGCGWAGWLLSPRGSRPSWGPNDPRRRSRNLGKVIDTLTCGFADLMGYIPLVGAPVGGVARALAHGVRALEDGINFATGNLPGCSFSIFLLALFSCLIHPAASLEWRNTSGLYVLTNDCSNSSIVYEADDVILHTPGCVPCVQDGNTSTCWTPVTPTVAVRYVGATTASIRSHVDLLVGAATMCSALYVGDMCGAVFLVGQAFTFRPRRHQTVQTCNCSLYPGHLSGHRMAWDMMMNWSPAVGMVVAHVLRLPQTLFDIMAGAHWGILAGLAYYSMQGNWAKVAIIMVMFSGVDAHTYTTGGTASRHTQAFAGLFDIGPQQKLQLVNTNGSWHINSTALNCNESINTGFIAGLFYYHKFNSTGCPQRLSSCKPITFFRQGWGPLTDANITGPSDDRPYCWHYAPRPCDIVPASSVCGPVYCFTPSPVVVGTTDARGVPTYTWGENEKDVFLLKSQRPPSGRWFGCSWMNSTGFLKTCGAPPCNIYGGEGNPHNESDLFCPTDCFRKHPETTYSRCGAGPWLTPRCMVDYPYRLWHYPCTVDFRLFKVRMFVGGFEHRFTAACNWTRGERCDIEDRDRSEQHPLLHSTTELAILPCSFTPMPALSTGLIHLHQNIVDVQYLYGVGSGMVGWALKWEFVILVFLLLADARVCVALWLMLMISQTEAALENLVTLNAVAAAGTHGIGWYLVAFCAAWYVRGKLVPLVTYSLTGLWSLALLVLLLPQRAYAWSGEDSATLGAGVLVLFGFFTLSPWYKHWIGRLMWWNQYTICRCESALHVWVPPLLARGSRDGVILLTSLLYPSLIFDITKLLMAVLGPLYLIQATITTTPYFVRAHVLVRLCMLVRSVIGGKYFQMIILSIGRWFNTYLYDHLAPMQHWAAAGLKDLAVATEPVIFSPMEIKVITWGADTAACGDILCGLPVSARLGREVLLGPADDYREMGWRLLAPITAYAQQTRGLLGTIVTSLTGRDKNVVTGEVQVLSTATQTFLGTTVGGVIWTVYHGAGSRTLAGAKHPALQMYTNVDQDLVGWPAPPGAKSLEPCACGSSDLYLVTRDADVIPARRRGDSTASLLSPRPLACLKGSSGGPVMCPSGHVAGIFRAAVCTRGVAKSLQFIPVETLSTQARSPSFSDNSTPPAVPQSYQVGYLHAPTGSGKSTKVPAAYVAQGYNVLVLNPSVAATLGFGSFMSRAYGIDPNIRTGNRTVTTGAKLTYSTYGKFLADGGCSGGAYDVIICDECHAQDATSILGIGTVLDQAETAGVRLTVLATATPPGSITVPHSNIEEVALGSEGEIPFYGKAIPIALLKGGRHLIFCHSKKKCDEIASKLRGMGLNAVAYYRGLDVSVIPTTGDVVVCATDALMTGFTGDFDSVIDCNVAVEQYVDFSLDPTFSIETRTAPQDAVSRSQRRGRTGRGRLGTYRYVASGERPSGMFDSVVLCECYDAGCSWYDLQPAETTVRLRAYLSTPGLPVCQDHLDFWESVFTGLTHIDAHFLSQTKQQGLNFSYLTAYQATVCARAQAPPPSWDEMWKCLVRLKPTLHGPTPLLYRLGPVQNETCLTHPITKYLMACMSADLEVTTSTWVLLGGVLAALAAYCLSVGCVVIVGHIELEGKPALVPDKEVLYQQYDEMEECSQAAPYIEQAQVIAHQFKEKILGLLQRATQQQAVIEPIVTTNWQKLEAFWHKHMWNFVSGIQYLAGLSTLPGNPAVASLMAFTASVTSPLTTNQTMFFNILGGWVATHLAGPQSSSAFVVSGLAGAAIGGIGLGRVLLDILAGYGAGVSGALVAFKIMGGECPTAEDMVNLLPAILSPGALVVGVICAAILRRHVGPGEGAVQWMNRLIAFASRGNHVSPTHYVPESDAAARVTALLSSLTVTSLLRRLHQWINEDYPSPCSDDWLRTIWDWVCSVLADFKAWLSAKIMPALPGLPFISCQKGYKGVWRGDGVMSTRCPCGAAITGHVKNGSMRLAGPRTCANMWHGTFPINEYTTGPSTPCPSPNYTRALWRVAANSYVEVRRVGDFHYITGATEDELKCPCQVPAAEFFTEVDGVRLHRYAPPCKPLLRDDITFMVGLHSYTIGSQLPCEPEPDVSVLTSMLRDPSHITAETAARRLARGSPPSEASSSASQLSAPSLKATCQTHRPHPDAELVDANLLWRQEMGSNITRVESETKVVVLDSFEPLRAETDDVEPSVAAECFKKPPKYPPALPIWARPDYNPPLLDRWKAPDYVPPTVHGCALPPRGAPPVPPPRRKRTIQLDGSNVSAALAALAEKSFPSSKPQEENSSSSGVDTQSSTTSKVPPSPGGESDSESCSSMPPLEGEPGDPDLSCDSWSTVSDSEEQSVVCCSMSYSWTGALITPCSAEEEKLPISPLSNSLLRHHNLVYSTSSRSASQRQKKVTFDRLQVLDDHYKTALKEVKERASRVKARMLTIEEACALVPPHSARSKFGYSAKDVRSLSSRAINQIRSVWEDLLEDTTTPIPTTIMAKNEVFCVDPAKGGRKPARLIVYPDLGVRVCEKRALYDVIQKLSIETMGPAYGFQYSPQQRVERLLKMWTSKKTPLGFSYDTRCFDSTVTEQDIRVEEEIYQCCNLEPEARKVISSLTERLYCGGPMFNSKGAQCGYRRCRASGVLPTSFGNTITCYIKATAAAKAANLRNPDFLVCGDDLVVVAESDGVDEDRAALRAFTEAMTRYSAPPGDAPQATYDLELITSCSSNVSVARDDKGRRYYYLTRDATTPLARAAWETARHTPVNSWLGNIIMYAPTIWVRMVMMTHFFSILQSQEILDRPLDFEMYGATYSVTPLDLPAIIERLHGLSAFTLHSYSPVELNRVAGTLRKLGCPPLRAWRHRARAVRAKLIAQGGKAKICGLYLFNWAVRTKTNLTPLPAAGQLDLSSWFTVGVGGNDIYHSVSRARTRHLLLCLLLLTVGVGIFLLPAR

Structure (SMILES)	EC50 [1] [nM]	EC50 [2] [nM]	EC50 [3] [nM]	Ki [4] [nM]	EC50 [5] [nM]	EC50 [6] [nM]	EC50 [7] [nM]	EC50 [8] [nM]	EC50 [9] [nM]	EC50 [10] [nM]	EC50 [11] [nM]
CC[C@@H]1[C@@H]2CN(C(=O)[C@H](C3CCCCC3)NC(=O)O[C@@H]3C[C@H]3CCCCCc3nc4ccc(OC)cc4nc3O2)[C@@H]1C(=O)N[C@]1(C(=O)NS(=O)(=O)C2(C)CC2)C[C@H]1C(F)F [Example 16, (1aR,5S,8S,9S,10R,22aR)-5-cyclohexyl-N-[(1R,2R)-2-(difluoromethyl)-1-{[(1-methylcyclopropyl)sulfonyl]carbamoyl}cyclopropyl]-9-ethyl-14-methoxy-3,6-dioxo-1,1a,3,4,5,6,9,10,18,19,20,21,22,22a-tetradecahydro-8H-7,10-methanocyclopropa[18,19][1,10,3,6]dioxadiazacyclononadecino[11,12-b]quinoxaline-8-carboxamide]	201	7.4	8.1	0.21	6.2	12	–	–	–	–	–
C=C[C@@H]1C[C@]1(NC(=O)[C@@H]1[C@H](CC)[C@@H]2CN1C(=O)[C@H](C(C)(C)C)NC(=O)O[C@@H]1C[C@H]1CCCCCc1nc3ccc(OC)cc3nc1O2)C(=O)NS(=O)(=O)C1CC1 [Example 91, (1aR,5S,8S,9S,10R,22aR)-5-tert-butyl-N-{(1R,2S)-1-[(cyclopropylsulfonyl)carbamoyl]-2-ethenylcyclopropyl}-9-ethyl-14-methoxy-3,6-dioxo-1,1a,3,4,5,6,9,10,18,19,20,21,22,22a-tetradecahydro-8H-7,10-methanocyclopropa[18,19][1,10,3,6]dioxadiazacyclononadecino[11,12-b]quinoxaline-8-carboxamide]	149	1.9	2.4	–	4	2.4	2.3	3.5	9.2	25	1.3
C=C[C@@H]1C[C@]1(NC(=O)[C@@H]1[C@H](CC)[C@@H]2CN1C(=O)[C@H](C(C)(C)C)NC(=O)O[C@@H]1C[C@H]1CCCCC(F)(F)c1nc3ccc(OC)cc3nc1O2)C(=O)NS(=O)(=O)C1CC1 [Example 92, (1aR,5S,8S,9S,10R,22aR)-5-tert-butyl-N-{(1R,2S)-1-[(cyclopropylsulfonoyl)carbamoyl]-2-ethenylcyclopropyl}-9-ethyl-18,18-difluoro-14-methoxy-3,6-dioxo-1,1a,3,4,5,6,9,10,18,19,20,21,22,22a-tetradecahydro-8H-7,10-methanocyclopropa[18,19][1,10,3,6]dioxadiazacyclononadecino[11,12-b]quinoxaline-8-carboxamide]	58	3.2	3.2	–	4.6	3.3	3	3	5.3	8	1.7
CC[C@@H]1[C@@H]2CN(C(=O)[C@H](C(C)(C)C)NC(=O)O[C@@H]3C[C@H]3CCCCC(F)(F)c3nc4ccc(OC)cc4nc3O2)[C@@H]1C(=O)NC1(C(=O)NS(=O)(=O)C2(C)CC2)C[C@H]1CC (stereo partly drawn) [Example 93, (1aR,5S,8S,9S,10R,22aR)-5-tert-butyl-9-ethyl-N-[(2R)-2-ethyl-1-{[(1-methylcyclopropyl)sulfonyl]carbamoyl}cyclopropyl]-18,18-difluoro-14-methoxy-3,6-dioxo-1,1a,3,4,5,6,9,10,18,19,20,21,22,22a-tetradecahydro-8H-7,10-methanocyclopropa[18,19][1,10,3,6]dioxadiazacyclononadecino[11,12-b]quinoxaline-8-carboxamide]	116	14	11	–	15	12	13	13	39	26	14
CC[C@@H]1[C@@H]2CN(C(=O)[C@H](C(C)(C)C)NC(=O)O[C@@H]3C[C@H]3CCCCC(F)(F)c3nc4ccc(OC)cc4nc3O2)[C@@H]1C(=O)NC1(C(=O)NS(=O)(=O)C2CC2)C[C@H]1C(F)F (stereo partly drawn) [Example 94, (1aR,5S,8S,9S,10R,22aR)-5-tert-butyl-N-[(2R)-1-[(cyclopropylsulfonyl)carbamoyl]-2-(difluoromethyl)cyclopropyl]-9-ethyl-18,18-difluoro-14-methoxy-3,6-dioxo-1,1a,3,4,5,6,9,10,18,19,20,21,22,22a-tetradecahydro-8H-7,10-methanocyclopropa[18,19][1,10,3,6]dioxadiazacyclononadecino[1,12-b]quinoxaline-8-carboxamide]	32	5.2	3	–	3.3	3.8	3.2	3.1	9.2	10	1.9
C[C@@H]1[C@@H]2CN(C(=O)[C@H](C(C)(C)C)NC(=O)O[C@@H]3C[C@@H]4C[C@@H]4[C@H]3CC/C=C/Cn3c(nc4cc(Cl)ccc4c3=O)O2)[C@@H]1C(=O)N[C@]1(C(=O)NS(=O)(=O)C2(C)CC2)C[C@H]1C(F)F [Example 96, (1aS,2aR,6S,9S,10S,11R,21E,24aR,24bS)-6-tert-butyl-15-chloro-N-[(1R,2R)-2-(difluoromethyl)-1-{[(1-methylcyclopropyl)sulfonyl]carbamoyl}cyclopropyl]-10-methyl-4,7,18-trioxo-1a,2,2a,4,5,6,7,10,11,20,23,24,24a,24b-tetradecahydro-1H,9H,18H-8,11-methanocyclopropa[4′,5′]cyclopenta[1′,2′:18,19][1,10,3,6,12]dioxatriazacyclononadecino[11,12-b]quinazoline-9-carboxamide]	77	11	8.9	–	5.4	12	5.2	3.8	3.6	12	4.1
C[C@@H]1[C@@H]2CN(C(=O)[C@H](C(C)(C)C)NC(=O)O[C@@H]3C[C@@H]4C[C@@H]4[C@H]3CCCCCc3nc4ccc(C#N)cc4nc3O2)[C@@H]1C(=O)NC1(C(=O)NS(=O)(=O)C2(C)CC2)C[C@H]1C(F)F (stereo partly drawn) [Example 97, (1aS,2aR,6S,9S,10S,11R,23aR,23bS)-6-tert-butyl-15-cyano-N-[(2R)-2-(difluoromethyl)-1-{[(1-methylcyclopropyl)sulfonyl]carbamoyl}cyclopropyl]-10-methyl-4,7-dioxo-1a,2,2a,4,5,6,7,10,11,19,20,21,22,23,23a,23b-hexadecahydro-1H, 9H-8,11-methanocyclopropa[4′,5′]cyclopenta[1′,2′:18,19][1,10,3,6]dioxadiazacyclononadecino[11,12-b]quinoxaline-9-carboxamide]	67	4.6	5.3	–	5.8	6.3	3.6	3.7	8.8	5.8	2.5
